Test results reported in ChEMBL document CHEMBL4673385, “Discovery of Potent Inhibitors of Streptococcus mutans Biofilm with Antivirulence Activity” (ACS Med Chem Lett, 2021).
Values after ≈ are worked out from the molar mass of the structure shown. Active and inactive are the calls of the source. The rule behind the calls is not given here.

What was measured:
[1] = Solubility of compound in water; type: physicochemical
Streptococcus mutans [2] = assay: Antibiofilm activity against Streptococcus mutans UA159 assessed as inhibition of biofilm formation by serial dilution method; type: functional, organism-based
Streptococcus mutans [3] = assay: Bactericidal activity against Streptococcus mutans UA159 assessed as reduction in bacterial growth at 100 uM after 24 hrs; type: functional, organism-based
[4] = Streptococcus mutans, UA159, read-out: IC50

| Compound | solubility ([1]; water, read-out: solubility) | IC50 (Streptococcus mutans [2]; [4]) | Activity (Streptococcus mutans [3]) | solubility ([1]; buffer) | IC50 (Streptococcus mutans [2]) |
| --- | --- | --- | --- | --- | --- |
| CC(C)(C)OC(=O)NCc1ccccc1NC(=O)c1cccc2ccccc12 | 5 µg/mL (≈ 13.3 µM) | 196 µM | inactive |  |  |
| CC(C)(C)OC(=O)NCc1ccccc1NC(=O)c1cc2cc([N+](=O)[O-])ccc2o1 | 25 µg/mL (≈ 60.8 µM) | 26.8 µM | inactive |  |  |
| NC(=O)c1ccc(NC(=O)c2cc3cc([N+](=O)[O-])ccc3s2)cc1 |  | > 300 µM | inactive |  |  |
| COC(=O)c1cccc(NC(=O)c2cc3cc([N+](=O)[O-])ccc3s2)c1 | 25 µg/mL (≈ 70.2 µM) | 54.4 µM | inactive |  |  |
| NCc1ccccc1NC(=O)c1cc2cc([N+](=O)[O-])ccc2s1 | 1000 µg/mL (≈ 3050 µM) |  | inactive |  |  |
| COC(=O)c1ccccc1NC(=O)c1cccc2ccccc12 | 5 µg/mL (≈ 16.4 µM) | > 300 µM | inactive |  |  |
| COC(=O)c1ccccc1NC(=O)c1cc2cc([N+](=O)[O-])ccc2o1 | 25 µg/mL (≈ 73.5 µM) | 71.4 µM | inactive |  |  |
| COC(=O)c1ccc(NC(=O)c2cc3cc([N+](=O)[O-])ccc3[nH]2)cc1 |  |  | inactive | Insoluble | Nd(Insoluble) |
| CC(C)(C)OC(=O)NCc1ccccc1NC(=O)c1cc2ccccc2s1 | 20 µg/mL (≈ 52.3 µM) | 43.4 µM | inactive |  |  |
| COC(=O)c1cccc(NC(=O)c2cnc3ccccc3c2)c1 |  |  | inactive |  |  |
| O=C(Nc1ccccc1)c1cccc2ccccc12 |  | > 300 µM | inactive |  |  |
| NC(=O)c1cccc(NC(=O)c2cc3cc([N+](=O)[O-])ccc3s2)c1 | 25 µg/mL (≈ 73.2 µM) | 42.3 µM | inactive |  |  |
| NC(=O)c1ccccc1NC(=O)c1cccc2ccccc12 |  | 150 µM | inactive |  |  |
| NC(=O)c1ccc(NC(=O)c2cc3ccccc3s2)cc1 | 25 µg/mL (≈ 84.4 µM) | 45.6 µM | inactive |  |  |
| CC(C)(C)OC(=O)NCc1ccccc1NC(=O)c1cc2cc([N+](=O)[O-])ccc2[nH]1 |  |  | inactive | Insoluble | Nd(Insoluble) |
| O=C(Nc1ccccc1)c1cc2cc([N+](=O)[O-])ccc2o1 | 25 µg/mL (≈ 88.6 µM) | > 300 µM | inactive |  |  |
| COC(=O)c1ccc(NC(=O)c2ccc3ccccc3c2)cc1 | 25 µg/mL (≈ 81.9 µM) | 112 µM | inactive |  |  |
| COC(=O)c1cccc(NC(=O)c2ccc3ccccc3c2)c1 | 5 µg/mL (≈ 16.4 µM) | > 300 µM | inactive |  |  |
| NC(=O)c1cccc(NC(=O)c2cc3cc([N+](=O)[O-])ccc3o2)c1 | 20 µg/mL (≈ 61.5 µM) | 38.8 µM | inactive |  |  |
| COC(=O)c1cccc(NC(=O)c2cc3cc([N+](=O)[O-])ccc3o2)c1 | 25 µg/mL (≈ 73.5 µM) | 2.7 µM | inactive |  |  |
| COC(=O)c1cccc(NC(=O)c2ccc3ccccc3n2)c1 | 25 µg/mL (≈ 81.6 µM) | 92.3 µM | inactive |  |  |

| Compound | solubility ([1]; water, read-out: solubility) | IC50 (Streptococcus mutans [2]; [4]) | Activity (Streptococcus mutans [3]) | solubility ([1]; buffer) | IC50 (Streptococcus mutans [2]) |
| --- | --- | --- | --- | --- | --- |
| COc1ccc2[nH]c(C(=O)Nc3ccccc3C(N)=O)cc2c1 | 10 µg/mL (≈ 32.3 µM) | > 300 µM | inactive |  |  |
| NC(=O)c1ccc(NC(=O)c2cc3cc([N+](=O)[O-])ccc3[nH]2)cc1 |  |  | inactive | Insoluble | Nd(Insoluble) |
| CC(C)(C)OC(=O)NCc1ccccc1NC(=O)c1ccc2ccccc2c1 |  | 56.8 µM | inactive |  |  |
| NCc1ccccc1NC(=O)c1ccc(-c2ccccc2)cc1 |  | 196 µM | inactive |  |  |
| NC(=O)c1ccccc1NC(=O)c1cc2cc([N+](=O)[O-])ccc2[nH]1 |  |  | inactive | Insoluble | Nd(Insoluble) |
| NCc1ccccc1NC(=O)c1cccc2ccccc12 | 25 µg/mL (≈ 90.5 µM) | 224 µM | inactive |  |  |
| COC(=O)c1ccc(NC(=O)c2ccc3ccccc3n2)cc1 | 25 µg/mL (≈ 81.6 µM) |  | inactive |  |  |
| NC(=O)c1ccc(NC(=O)c2ccc3ccccc3n2)cc1 | 5 µg/mL (≈ 17.2 µM) | 54.4 µM | inactive |  |  |
| CC(C)(C)OC(=O)NCc1ccccc1NC(=O)c1ccc2ccccc2n1 | < 5 µg/mL | 67.5 µM | inactive |  |  |
| COC(=O)c1cccc(NC(=O)c2cc3cc(OC)ccc3[nH]2)c1 |  |  | inactive | Insoluble | Nd(Insoluble) |
| NCc1ccccc1NC(=O)c1cc2cc([N+](=O)[O-])ccc2o1 | 5 µg/mL (≈ 16.1 µM) | 98.3 µM | inactive |  |  |
| COC(=O)c1ccc(NC(=O)c2cc3cc(OC)ccc3[nH]2)cc1 |  |  | inactive | Insoluble | Nd(Insoluble) |
| O=C(Nc1ccccc1)c1cc2ccccc2s1 |  | > 300 µM | inactive |  |  |
| O=C(Nc1ccccc1)c1ccc(-c2ccccc2)cc1 |  | > 300 µM | inactive |  |  |
| COC(=O)c1cccc(NC(=O)c2cc3ccccc3s2)c1 |  |  | inactive |  |  |
| NCc1ccccc1NC(=O)c1ccc2ccccc2c1 |  |  | inactive |  |  |
| COC(=O)c1ccc(NC(=O)c2ccc(-c3ccccc3)cc2)cc1 |  | > 300 µM | inactive |  |  |
| COC(=O)c1ccccc1NC(=O)c1cc2cc(OC)ccc2[nH]1 |  |  | inactive | Insoluble | Nd(Insoluble) |
| COC(=O)c1cccc(NC(=O)c2cccc3ccccc23)c1 | < 5 µg/mL | > 300 µM | inactive |  |  |
| NC(=O)c1cccc(NC(=O)c2cc3cc([N+](=O)[O-])ccc3[nH]2)c1 |  |  | inactive | Insoluble | Nd(Insoluble) |
| NC(=O)c1cccc(NC(=O)c2ccc3ccccc3c2)c1 | < 5 µg/mL | 240 µM | inactive |  |  |

| Compound | solubility ([1]; water, read-out: solubility) | IC50 (Streptococcus mutans [2]; [4]) | Activity (Streptococcus mutans [3]) | solubility ([1]; buffer) | IC50 (Streptococcus mutans [2]) |
| --- | --- | --- | --- | --- | --- |
| O=C(Nc1ccccc1)c1ccc2ccccc2c1 |  | > 300 µM | inactive |  |  |
| COC(=O)c1ccc(NC(=O)c2cc3ccccc3s2)cc1 | 20 µg/mL (≈ 64.2 µM) | 41.2 µM | inactive |  |  |
| COC(=O)c1ccccc1NC(=O)c1cc2cc([N+](=O)[O-])ccc2s1 |  | > 300 µM | inactive |  |  |
| NCc1ccccc1NC(=O)c1cc2ccccc2s1 |  | 167 µM | inactive |  |  |
| COC(=O)c1ccc(NC(=O)c2cc3cc([N+](=O)[O-])ccc3o2)cc1 | 20 µg/mL (≈ 58.8 µM) |  | inactive |  |  |
| NCc1ccccc1NC(=O)c1cnc2ccccc2c1 | 5 µg/mL (≈ 18 µM) |  | inactive |  |  |
| NC(=O)c1ccccc1NC(=O)c1cc2cc([N+](=O)[O-])ccc2o1 | 5 µg/mL (≈ 15.4 µM) |  | inactive |  |  |
| NC(=O)c1ccc(NC(=O)c2cc3cc([N+](=O)[O-])ccc3o2)cc1 |  | > 300 µM | inactive |  |  |
| COC(=O)c1ccccc1NC(=O)c1ccc2ccccc2c1 | 25 µg/mL (≈ 81.9 µM) |  | inactive |  |  |
| NCc1ccccc1NC(=O)c1cc2cc([N+](=O)[O-])ccc2[nH]1 |  |  | inactive |  |  |
| NC(=O)c1cccc(NC(=O)c2ccc3ccccc3n2)c1 | 10 µg/mL (≈ 34.3 µM) |  | inactive |  |  |
| COC(=O)c1ccccc1NC(=O)c1ccc(-c2ccccc2)cc1 |  | > 300 µM | inactive |  |  |
| NC(=O)c1ccc(NC(=O)c2cnc3ccccc3c2)cc1 |  | > 300 µM | inactive |  |  |
| NC(=O)c1cccc(NC(=O)c2cc3ccccc3s2)c1 | < 5 µg/mL |  | inactive |  |  |
| NC(=O)c1ccc(NC(=O)c2cccc3ccccc23)cc1 | < 5 µg/mL |  | inactive |  |  |
| COC(=O)c1ccccc1NC(=O)c1cc2ccccc2s1 |  | > 300 µM | inactive |  |  |
| NC(=O)c1cccc(NC(=O)c2cccc3ccccc23)c1 | 10 µg/mL (≈ 34.4 µM) |  | inactive |  |  |
| COc1ccc2[nH]c(C(=O)Nc3ccc(C(N)=O)cc3)cc2c1 |  | > 300 µM | inactive |  |  |
| COC(=O)c1ccc(NC(=O)c2cccc3ccccc23)cc1 |  | > 300 µM | inactive |  |  |
